Assay results: patent US9150617B2, “Immunoregulatory peptides and methods of use” (13 Therapeutics, Inc., priority 2009, dated 2015)
Ends that are not written are not given here.

Columns and labels:
[1] = test system: TNF-α secretion from RAW264.7 cells; assay: Inhibition of TNF-α secretion from RAW264.7 cells stimulated with CpG-ODN (ELISA); assay type: cell-based, murine; settings: for activity vis-à-vis P13 (inhibition of TNF-α after stimulation of RAW264.7 cells with CpG): SAR, compared with P13; for Inhibition of TNF-α secretion (percent inhibition): 4 hours (Table 3)
Experimental: (§1) RAW264.7 (murine monocyte/macrophage cells (American Type Culture Collection) were cultured at 37° C. in a 5% CO2 humidified incubator and grown in DMEM (Invitrogen Life Technologies) supplemented with 10% (v/v) heat-inactivated FCS, 1.5 mM L-glutamine, 100 U/ml penicillin, and 100 μg/ml streptomycin.
(§2) RAW264.7 cells were plated at 1.5×10^5 cells/well −3×10^5 cells/well in 48-well plates. After 24 hours, the cells were incubated with peptides at various concentrations at room temperature in triplicate either before, simultaneous with, or after activation with various PAMPs for 18 hours. Cell-free supernatants were analyzed for cytokines by ELISA, in quadruplicate. RAW264.7 cells were stimulated with either CpG-ODN (1 μg/ml or 1.25 μg/ml), LPS (about 1 ng/ml), Poly (I:C) (about 10 μg/ml), flagellin (about 5 ng/ml), or zymosan (about 10 μg/ml). Dose response curves were done with each PAMP to determine optimal stimulation concentration. For CpG-ODN stimulation, cells were incubated for 4 hours at 37° C., supernatants collected, and TNF-α measured by ELISA. Any cytokine involved in inflammatory disease mediated toll receptor signaling can be measured using similar assays.
The effect of several peptides on TNF-α secretion from RAW264.7 cells in response to stimulation by CpG-ODN was studied. Each peptide was initially tested at 3 concentrations, 37 μM, 22.2 μM, and 11.1 μM. […] The peptides were then tested at 11.1 μM, 7.4 μM, and 3.7 μM (Table 3). […] Cell viability was examined for each peptide at the concentrations tested for TNF-α inhibition.
(§3) Inhibition of TNF-α secretion by various T-peptides was examined. RAW264.7 cells were plated at 3×10^5 cells/well in 48-well plates. After 24 h the cells were incubated with peptide at various concentrations at room temperature in triplicate for 15 minutes and then stimulated with 1.25 ug/ml CpG-ODN or 1 ng/ml LPS. Cells were then incubated for 4 hours at 37° C., supernatants collected, and TNF-α measured by ELISA. Percent inhibition was calculated by comparing TNF-α secretion from cells incubated with peptide to control cells with no peptide treatment. The inhibition by peptides T3, T11, T21, T36, T37, T51 and T52 were compared to inhibition by an analogue of P13 having a sequence of nine arginine residues (SEQ ID NO: 379) at the C-terminus (P13-R^9; SEQ ID NO: 378). (Table 4).

[2] = test system: TNF-α secretion from RAW264.7 cells; assay: Inhibition of TNF-α secretion from RAW264.7 cells stimulated with LPS (ELISA); assay type: cell-based, murine; settings: LPS Stimulation, 1 ng/ml LPS
Experimental: as §1, §2, §3

[3] = test system: mouse middle ear; assay: Effects caused by peptide without added bacteria on mouse middle ear; assay type: in vivo; settings: 10 μM, no bacteria, 3 days
Experimental: (§4) Induction of otitis media: BALB/c (Bagg albino) mice, about 8-12 weeks of age, are anesthetized with a subcutaneous injection of xylazine & ketamine (about 0.1 mg/30 gm body weight) and their ears examined under the operating microscope to assure they are free of infection or perforation. One group of animals is injected with PBS (Phospho-buffered saline) in one ear and with about 10 μM of a peptide of Table 1 in the opposite ear, to determine the effect of peptide without added bacteria. A second group of animals receive about 5.0 μl of PBS plus heat-inactivated S. pneumoniae (about 10^9 CFU/ml) in one ear and about 5.0 μl of peptide (about 10 μM) plus heat-inactivated S. pneumoniae (about 10^9 CFU/ml) in the opposite ear. Injections are done through the tympanic membrane. Animals are killed about 3 days after bacterial injection and tissue is histologically processed to assess middle ear disease. Inflammation is quantified by measuring 1) area of fluid present in the middle ear; 2) number of cells in middle ear fluid; and 3) thickness of the tympanic membrane (TM) taken at a point away from the injection site. Data are obtained from mice (n=18) injected with PBS alone for each of the histological parameters measured, to serve as a control group.
To determine the effect of peptide without added bacteria, animals are injected in one ear with PBS alone, and the other ear with about 10 μM peptide. Paired t-tests are done comparing the effect of PBS alone with the effect of peptide for each of the three histological parameters: 1) area of fluid present in the middle ear; 2) number of cells in middle ear fluid; and 3) thickness of the tympanic membrane. […]
Five mice were injected in one ear with PBS and in the opposite ear with 10 μM peptide P13. Three days later the animals were killed, and the middle ears embedded, sectioned, stained and evaluated for fluid area, infiltrating cell number, and thickness of the tympanic membrane. […]

[4] = test system: middle ear inflammation in BALB/c mice; assay: Middle ear inflammation, heat-inactivated S. pneumoniae plus peptide injected into the middle ear; assay type: in vivo, mouse; settings: heat-inactivated S. pneumoniae into middle ears of BALB/c mice
Experimental: as §4, with “Injections are done through the tympanic membrane. Animals are killed about 3 days after bacterial injection and tissue is histologically processed to assess middle ear disease.” left out
At the end of the experimental treatment, mice are killed and tissues collected for histology. […] This enables all histologic embedding, sectioning, staining, and analysis to be done on the two sides simultaneously to reduce any impact of processing variables on the subsequent quantitative analyses. […]

[5] = test system: toll-like receptor-dependent signaling; assay: Cytokine secretion in response to TLR activation; assay type: cell-based
Experimental: as §2

[6] = test system: LPS-induced septic shock in mice; assay: Mouse model of LPS-induced septic shock; assay type: in vivo
Experimental: BALB/c mice are injected i.p. with PBS, LPS at about 100 μg/mouse/250 μl, or about 100 μg LPS plus various doses of peptides. Serum is collected at about 2 and about 6 hours after treatment and evaluated for the pro-inflammatory cytokines MIP-2 and TNF-α by ELISA, and for soluble ICAM-1.

[7] = test system: tympanic membrane of BALB/c mice; assay: Assay for crossing the tympanic membrane by FITC-labeled peptide; assay type: in vivo, mouse; settings: 10 μg/30 μl dropped onto ear with AOM, 10 minutes; fluorescent microscopy of middle ear fluid
Experimental: Three BALB/c mice at 8-12 weeks of age were anesthetized with ketamine (100 mg/kg) and xylazine (20 mg/kg) prior to administration of bacteria. A ventral midline incision was made in the neck, and the bulla exposed after blunt dissection. The middle ear was inoculated through the bony wall with approximately 3.5 μl of a bacterial suspension (heat inactivated S. pneumoniae 10^10 CFU/ml) with a thin needle. Both the right and left ears received bacteria by bulla injection.
After 24 hours, animals received an otoscopic exam using an operating microscope. Mice were anesthetized as described above, and the tympanic membrane was inspected for the presence or absence of the following three criteria for acute otitis media (AOM): 1) middle ear effusion behind the tympanic membrane; 2) change in color of the tympanic membrane from clear to red or white (indicating inflammation and/or purulence in the middle ear); 3) change in position of the tympanic membrane from neutral to bulging or retracted.
Four ears met the criteria for AOM. FITC labeled peptide P13-R^9 (SEQ ID NO: 378) (10 μg/30 μl) was dropped onto the middle ear. The peptide was allowed to absorb for 10 minutes. After 10 minutes, the external ear canal was flushed twice, and blotted to get rid of any remaining peptide. […]

[8] = 7.1 μM peptide, CpG stimulation, 1.25 ug/ml CpG-ODN
[9] = 11.1 μM peptide, CpG stimulation, 1.25 ug/ml CpG-ODN
[10] = 22 μM peptide, CpG stimulation, 1.25 ug/ml CpG-ODN
[11] = 11.1 μM peptide, 1 ug/ml CpG-ODN, 4 hours (Table 2)
[12] = 22.2 μM peptide, 1 ug/ml CpG-ODN, 4 hours

For AIIKVYVYACIRRRRRRRRR [T52-R^9], the “Percent Inhibition of TNF-α secretion” value [1, 8] was 97.8%, the “Percent Inhibition of TNF-α secretion” value [1, 9] was 99.2% and the “Percent Inhibition of TNF-α secretion” value [1, 10] was 100%. For the same substance, the “activity vis-à-vis P13 (inhibition of TNF-α after stimulation of RAW264.7 cells with CpG)” value [1] was “superior activity”.
AIVKLTVYACIRRRRRRRRR [T51-R^9] was tested, and the “Percent Inhibition of TNF-α secretion” value [1, 8] was 94%, the “Percent Inhibition of TNF-α secretion” value [1, 9] was 98% and the “Percent Inhibition of TNF-α secretion” value [1, 10] was 99.7%. The “activity vis-à-vis P13 (inhibition of TNF-α after stimulation of RAW264.7 cells with CpG)” value [1] was “superior activity”.
AIVKLTVYDCIRRRRRRRRR [T3-R^9] was tested, and the “Percent Inhibition of TNF-α secretion” value [1, 8] was 85%, the “Percent Inhibition of TNF-α secretion” value [1, 9] was 92% and the “Percent Inhibition of TNF-α secretion” value [1, 10] was 99%. The “activity vis-à-vis P13 (inhibition of TNF-α after stimulation of RAW264.7 cells with CpG)” value [1] was “superior activity”, the “Percent Inhibition of TNF-α secretion” value ([2]; 7.4 uM peptide) was 33% and the “Percent Inhibition of TNF-α secretion” value ([2]; 11.1 uM peptide) was 65%. The “Percent Inhibition of TNF-α secretion” value ([2]; 22.2 uM peptide) was 77%.
With DIIKLTVYDCIRRRRRRRRR [T36-R^9] the “Percent Inhibition of TNF-α secretion” value [1, 8] was 50%, the “Percent Inhibition of TNF-α secretion” value [1, 9] was 70% and the “Percent Inhibition of TNF-α secretion” value [1, 10] was 82%. The “activity vis-à-vis P13 (inhibition of TNF-α after stimulation of RAW264.7 cells with CpG)” value [1] was “superior activity”.
With DIVKLTVYACIRRRRRRRRR [T11-R^9] the “activity vis-à-vis P13 (inhibition of TNF-α after stimulation of RAW264.7 cells with CpG)” value [1] was “superior activity”, the “Percent Inhibition of TNF-α secretion” value ([2]; 7.4 uM peptide) was 68% and the “Percent Inhibition of TNF-α secretion” value ([2]; 11.1 uM peptide) was 81%. The “Percent Inhibition of TNF-α secretion” value ([2]; 22.2 uM peptide) was 91%.
In the case of DIVKLTVYDCI [Peptide P13, DIVKLTVYDCI], the “difference between PBS-injected ear and P13-injected ear in cell number” value [3] is reported as “no differences”, the “difference between PBS-injected ear and P13-injected ear in fluid area” value [3] is reported as “no differences” and the “difference between PBS-injected ear and P13-injected ear in tympanic membrane thickness” value [3] is reported as “no differences”.
DIVKLTVYDCIRRRRRRRRR [P13-R^9] was tested, and the “bacterial-induced inflammatory response in the middle ear” value [4] was “dramatically reduced”, the “cytokine secretion in response to TLR activation” value [5] was “effectively inhibits” and the pro-inflammatory mediators [6] was “reduce pro-inflammatory mediators”. For the same substance, the “Percent Inhibition of TNF-α secretion” value [1, 8] was 32%, the “Percent Inhibition of TNF-α secretion” value [1, 9] was 65% and the “Percent Inhibition of TNF-α secretion” value [1, 10] was 86%. The “Percent Inhibition of TNF-α secretion” value ([2]; 7.4 uM peptide) was 0%, the “Percent Inhibition of TNF-α secretion” value ([2]; 11.1 uM peptide) was 13% and the “Percent Inhibition of TNF-α secretion” value ([2]; 22.2 uM peptide) was 69%.
DIVKLYVYDCIRRRRRRRRR [T21-R^9] was tested, and the “Percent Inhibition of TNF-α secretion” value [1, 8] was 69%, the “Percent Inhibition of TNF-α secretion” value [1, 9] was 90% and the “Percent Inhibition of TNF-α secretion” value [1, 10] was 98%. For the same substance, the “activity vis-à-vis P13 (inhibition of TNF-α after stimulation of RAW264.7 cells with CpG)” value [1] was “superior activity”.
With DIVKVTVYDCIRRRRRRRRR [T37-R^9] the “Percent Inhibition of TNF-α secretion” value [1, 8] was 46%, the “Percent Inhibition of TNF-α secretion” value [1, 9] was 87% and the “Percent Inhibition of TNF-α secretion” value [1, 10] was 93%. For the same substance, the “activity vis-à-vis P13 (inhibition of TNF-α after stimulation of RAW264.7 cells with CpG)” value [1] was “superior activity”.
With “FITC-labeled P13-R^9: FITC (Fluorescein isothiocyanate) labeled peptide P13-R^9 (SEQ ID NO: 378) (DIVKLTVYDCIRRRRRRRRR; also: FITC label)” the “crossing the tympanic membrane” value [7] was “crosses the tympanic membrane and associates with cells in middle ear fluid”.
For “FTILLEEYFMYRGLLGLRIRRRRRRRRR [Peptide 103 (S19)-R^9]”, the “Inhibition of TNF-α secretion (percent inhibition)” value (“Inhibition … (percent inhibition)” for short) ([1]; 7 μM peptide, 1 ug/ml CpG-ODN) was 87%, the “Inhibition … (percent inhibition)” value ([1]; 11 μM peptide, 1 ug/ml CpG-ODN) was 93% and the “Percent Inhibition of TNF-α secretion” value [1, 11] was 93%. For the same substance, the “Percent Inhibition of TNF-α secretion” value [1, 12] was 99%.
In the case of “ILLEEYFMYRGLLGLRIRRRRRRRRR [Peptide 105 (S21)-R^9]”, the “Inhibition … (percent inhibition)” value ([1]; 7 μM peptide, 1 ug/ml CpG-ODN) is reported as 52%, the “Inhibition … (percent inhibition)” value ([1]; 11 μM peptide, 1 ug/ml CpG-ODN) is reported as 62% and the “Percent Inhibition of TNF-α secretion” value [1, 11] is reported as 62%. For the same substance, the “Percent Inhibition of TNF-α secretion” value [1, 12] was 91%.
In the case of “LLEEYFMYGLLGLRIRRRRRRRRR [Peptide 106 (S22)-R^9]”, the “Inhibition … (percent inhibition)” value ([1]; 7 μM peptide, 1 ug/ml CpG-ODN) is reported as 53%, the “Inhibition … (percent inhibition)” value ([1]; 11 μM peptide, 1 ug/ml CpG-ODN) is reported as 70% and the “Percent Inhibition of TNF-α secretion” value [1, 11] is reported as 70%. For the same substance, the “Percent Inhibition of TNF-α secretion” value [1, 12] was 92%.
For “TILLEEYFMYRGLLGLRIRRRRRRRRR [Peptide 104 (S20)-R^9]”, the “Inhibition … (percent inhibition)” value ([1]; 7 μM peptide, 1 ug/ml CpG-ODN) was 60%, the “Inhibition … (percent inhibition)” value ([1]; 11 μM peptide, 1 ug/ml CpG-ODN) was 74% and the “Percent Inhibition of TNF-α secretion” value [1, 11] was 74%. The “Percent Inhibition of TNF-α secretion” value [1, 12] was 93%.
